In patent publication US9434711B2 (Janssen Pharmaceutica, NV, priority 2007, dated 2016):
pIC50: −log10 of the molar value.

Target: canine TRPM8 (Canis lupus familiaris, UniProt Q1A7N1)
Assay: In Vitro Canine TRPM8 Functional Assay (Ca2+ fluorescence, icilin activation)
Assay type: cell-based
Conditions: for pIC50: HEK293 cells stably expressing canine TRPM8, icilin activation, eight-point dose-response, read-out: IC50; for inhibition at 0.2 µM: read-out: % Inh @ 0.2; for inhibition at 0.5 µM: compound at 0.5 μM, read-out: % Inh @ 0.5
Procedure, shortened: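 Eight-point dose-response curves in quadruplicate gave EC50 or IC50 values from a Ca2+-sensitive dye assay in HEK293 cells stably carrying canine TRPM8. Icilin, dosed near its 80% maximal level, followed a 5 min compound exposure.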

[1] = compound at 0.2 μM, canine TRPM8, icilin activation
[2] = canine TRPM8, icilin activation

Sequence of canine TRPM8 (Q1A7N1 1-1104): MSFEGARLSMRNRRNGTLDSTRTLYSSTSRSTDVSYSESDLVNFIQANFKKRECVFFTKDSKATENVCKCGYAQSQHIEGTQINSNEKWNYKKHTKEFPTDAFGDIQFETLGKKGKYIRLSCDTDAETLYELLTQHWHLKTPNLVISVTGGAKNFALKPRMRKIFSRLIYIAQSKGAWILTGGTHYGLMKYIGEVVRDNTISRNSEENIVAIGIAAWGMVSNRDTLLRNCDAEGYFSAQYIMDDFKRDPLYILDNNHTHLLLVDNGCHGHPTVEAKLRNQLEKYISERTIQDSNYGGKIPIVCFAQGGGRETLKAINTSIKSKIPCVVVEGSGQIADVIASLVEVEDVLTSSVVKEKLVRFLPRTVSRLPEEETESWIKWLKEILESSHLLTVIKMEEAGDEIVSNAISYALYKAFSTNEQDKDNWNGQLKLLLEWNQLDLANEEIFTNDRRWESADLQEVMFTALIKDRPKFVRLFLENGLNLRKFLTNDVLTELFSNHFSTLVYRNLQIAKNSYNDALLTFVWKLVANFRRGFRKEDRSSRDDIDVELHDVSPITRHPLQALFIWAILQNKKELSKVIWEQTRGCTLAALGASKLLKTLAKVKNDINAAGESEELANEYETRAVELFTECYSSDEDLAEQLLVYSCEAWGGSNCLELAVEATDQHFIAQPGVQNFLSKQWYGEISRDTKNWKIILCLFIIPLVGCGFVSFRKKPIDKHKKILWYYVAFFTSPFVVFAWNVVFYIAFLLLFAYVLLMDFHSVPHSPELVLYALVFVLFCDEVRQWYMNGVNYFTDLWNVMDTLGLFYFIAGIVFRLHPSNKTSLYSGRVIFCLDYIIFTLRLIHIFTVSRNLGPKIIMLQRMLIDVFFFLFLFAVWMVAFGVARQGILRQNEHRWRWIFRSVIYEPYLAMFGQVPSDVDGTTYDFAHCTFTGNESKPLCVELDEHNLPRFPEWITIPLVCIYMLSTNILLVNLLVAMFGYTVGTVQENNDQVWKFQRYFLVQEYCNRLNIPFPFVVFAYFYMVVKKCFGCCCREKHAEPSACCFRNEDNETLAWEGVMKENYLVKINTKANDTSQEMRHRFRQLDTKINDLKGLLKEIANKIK

O=C(O)c1ccc(S(=O)(=O)N(CC(F)F)c2sc3ccccc3c2Br)cc1 [Compound 276, N-(3-Bromo-benzo[b]thiophen-2-yl)-N-(2,2-difluoro-ethyl)-4-carboxy-benzenesulfonamide]
pIC50: 7.15 | inhibition at 0.2 µM [1]: 76%

O=C(O)c1ccc(S(=O)(=O)N(CCN2CCOCC2)c2sc3ccccc3c2Br)cc1 [Compound 277, N-(3-Bromo-benzo[b]thiophen-2-yl)-N-(2-morpholin-4-yl-ethyl)-4-carboxy-benzenesulfonamide]
pIC50: 7.41 | inhibition at 0.2 µM [1]: 91%

O=C(O)c1ccc(S(=O)(=O)N(CC23CC4CC(CC(C4)C2)C3)c2sc3ccccc3c2Br)cc1 [Compound 278, N-(3-Bromo-benzo[b]thiophen-2-yl)-N-(adamant-1-yl-methyl)-4-carboxy-benzenesulfonamide]
pIC50: 9.00 | inhibition at 0.2 µM [1]: 98%

O=C(O)c1ccc(S(=O)(=O)N(CC2CCCCC2)c2sc3ccccc3c2Br)cc1 [Compound 279, N-(3-Bromo-benzo[b]thiophen-2-yl)-N-(cyclohexylmethyl)-4-carboxy-benzenesulfonamide]
pIC50: 8.89 | inhibition at 0.2 µM [1]: 97%

CCCCN(c1sc2ccccc2c1C(C)O)S(=O)(=O)CC (stereo not drawn) [Compound 280, N-(Butyl)-N-[3-(1-hydroxy-ethyl)-benzo[b]thiophen-2-yl]-ethanesulfonamide]
inhibition at 0.2 µM [1]: 87%

CCS(=O)(=O)N(CC1CC1)c1sc2ccccc2c1C(C)O (stereo not drawn) [Compound 281, N-(Cyclopropylmethyl)-N-(3-(1-hydroxyethyl)benzo[b]thiophen-2-yl)-ethanesulfonamide]
inhibition at 0.2 µM [1]: 62%

CCS(=O)(=O)N(CCC(F)(F)F)c1sc2ccccc2c1C(C)O (stereo not drawn) [Compound 282, N-(3-(1-Hydroxyethyl)benzo[b]thiophen-2-yl)-N-(3,3,3-trifluoro-propyl)-ethanesulfonamide]
pIC50: 7.15 | inhibition at 0.2 µM [1]: 86%

CCS(=O)(=O)N(CCOC(C)(C)C)c1sc2ccccc2c1C(C)O (stereo not drawn) [Compound 283, N-(2-tert-Butoxyethyl)-N-(3-(1-hydroxyethyl)benzo[b]thiophen-2-yl)-ethanesulfonamide]
pIC50: 7.04 | inhibition at 0.2 µM [1]: 82%

Cc1c(N(Cc2ccc(F)c(F)c2)S(=O)(=O)c2ccc(O)cc2)sc2ccccc12 [Compound 285, N-(3,4-Difluoro-benzyl)-N-(3-methyl-benzo[b]thiophen-2-yl)-4-hydroxy-benzenesulfonamide]
pIC50: 8.60 | inhibition at 0.5 µM [2]: 100%

Cc1c(N(Cc2ccc(F)c(F)c2)S(=O)(=O)c2cccc(O)c2)sc2ccccc12 [Compound 286, N-(3,4-Difluoro-benzyl)-N-(3-methyl-benzo[b]thiophen-2-yl)-3-hydroxy-benzenesulfonamide]
pIC50: 8.15 | inhibition at 0.5 µM [2]: 99%

O=S(=O)(c1ccccc1)N(Cc1cccc(O)c1)c1cc2ccccc2s1 [Compound 287, N-(Benzo[b]thiophen-2-yl)-N-(3-hydroxy-benzyl)-benzenesulfonamide]
pIC50: 7.53 | inhibition at 0.5 µM [2]: 96%

O=S(=O)(c1cccc(O)c1)N(Cc1ccc(F)c(C(F)(F)F)c1)c1sc2ccccc2c1Cl [Compound 288, N-(3-Chloro-benzo[b]thiophen-2-yl)-N-(4-fluoro-3-trifluoromethyl-benzyl)-3-hydroxy-benzenesulfonamide]
pIC50: 7.70 | inhibition at 0.2 µM [1]: 90%

O=S(=O)(c1ccc(O)cc1)N(Cc1ccc(F)c(C(F)(F)F)c1)c1sc2ccccc2c1Cl [Compound 289, N-(3-Chloro-benzo[b]thiophen-2-yl)-N-(4-fluoro-3-trifluoromethyl-benzyl)-4-hydroxy-benzenesulfonamide]
pIC50: 7.57 | inhibition at 0.2 µM [1]: 92%

O=S(=O)(c1ccc(O)cc1)N(Cc1ccc(F)c(C(F)(F)F)c1)c1sc2ccccc2c1Br [Compound 290, N-(3-Bromo-benzo[b]thiophen-2-yl)-N-(4-fluoro-3-trifluoromethyl-benzyl)-4-hydroxy-benzenesulfonamide]
pIC50: 8.28 | inhibition at 0.2 µM [1]: 103%

O=S(=O)(c1cccc(O)c1)N(Cc1ccc(F)c(C(F)(F)F)c1)c1sc2ccccc2c1Br [Compound 291, N-(3-Bromo-benzo[b]thiophen-2-yl)-N-(4-fluoro-3-trifluoromethyl-benzyl)-3-hydroxy-benzenesulfonamide]
pIC50: 8.24 | inhibition at 0.2 µM [1]: 101%

O=C(O)c1cccc(S(=O)(=O)N(Cc2ccc(F)c(C(F)(F)F)c2)c2sc3ccccc3c2Br)c1 [Compound 293, N-(3-Bromo-benzo[b]thiophen-2-yl)-N-(4-fluoro-3-trifluoromethyl-benzyl)-3-carboxy-benzenesulfonamide]
pIC50: 8.11 | inhibition at 0.2 µM [1]: 101% | inhibition at 0.5 µM [2]: 101%

O=C(O)c1ccc(S(=O)(=O)N(Cc2ccc(F)c(C(F)(F)F)c2)c2sc3ccccc3c2Cl)cc1 [Compound 294, N-(3-Chloro-benzo[b]thiophen-2-yl)-N-(4-fluoro-3-trifluoromethyl-benzyl)-4-carboxy-benzenesulfonamide]
pIC50: 8.74 | inhibition at 0.2 µM [1]: 99%

O=C(O)c1cccc(S(=O)(=O)N(Cc2ccc(F)c(C(F)(F)F)c2)c2cc3ccccc3s2)c1 [Compound 295, N-(Benzo[b]thiophen-2-yl)-N-(4-fluoro-3-trifluoromethyl-benzyl)-3-carboxy-benzenesulfonamide]
pIC50: 7.48 | inhibition at 0.2 µM [1]: 81%

O=C(O)c1ccc(S(=O)(=O)N(Cc2ccc(F)c(C(F)(F)F)c2)c2cc3ccccc3s2)cc1 [Compound 296, N-(Benzo[b]thiophen-2-yl)-N-(4-fluoro-3-trifluoromethyl-benzyl)-4-carboxy-benzenesulfonamide]
pIC50: 8.70 | inhibition at 0.2 µM [1]: 96%

O=C(O)c1ccccc1S(=O)(=O)N(Cc1ccc(F)c(C(F)(F)F)c1)c1sc2ccccc2c1Cl [Compound 297, N-(3-Chloro-benzo[b]thiophen-2-yl)-N-(4-fluoro-3-trifluoromethyl-benzyl)-2-carboxy-benzenesulfonamide]
inhibition at 0.2 µM [1]: 21%

O=C(O)c1ccccc1S(=O)(=O)N(Cc1ccc(F)c(C(F)(F)F)c1)c1sc2ccccc2c1Br [Compound 298, N-(3-Bromo-benzo[b]thiophen-2-yl)-N-(4-fluoro-3-trifluoromethyl-benzyl)-2-carboxy-benzenesulfonamide]
inhibition at 0.2 µM [1]: 18%

O=Cc1c(N(Cc2ccc(F)c(C(F)(F)F)c2)S(=O)(=O)c2ccc(C(=O)O)cc2)sc2ccccc12 [Compound 299, N-(3-Formyl-benzo[b]thiophen-2-yl)-N-(4-fluoro-3-trifluoromethyl-benzyl)-4-carboxy-benzenesulfonamide]
pIC50: 8.52 | inhibition at 0.2 µM [1]: 90%

NS(=O)(=O)N(Cc1ccc(F)c(C(F)(F)F)c1)c1cc2ccccc2s1 [Compound 300, N-(Benzo[b]thiophen-2-yl)-N-(4-fluoro-3-trifluoromethyl-benzyl)-sulfamide]
inhibition at 0.2 µM [1]: 21%

NS(=O)(=O)N(Cc1ccc(F)c(C(F)(F)F)c1)c1sc2ccccc2c1Br [Compound 301, N-(3-Bromo-benzo[b]thiophen-2-yl)-N (4-fluoro-3-trifluoromethyl-benzyl)-sulfamide]
% Inh @ 0.2 (μM) [1]: 63%

NS(=O)(=O)N(Cc1ccc(F)c(C(F)(F)F)c1)c1sc2ccccc2c1Cl [Compound 302, N-(3-Chloro-benzo[b]thiophen-2-yl)-N-(4-fluoro-3-trifluoromethyl-benzyl)-sulfamide]
inhibition at 0.2 µM [1]: 50%

NS(=O)(=O)N(CC1CC1)c1sc2ccccc2c1Br [Compound 303, N-(3-Bromo-benzo[b]thiophen-2-yl)-N-(cyclopropylmethyl)-sulfamide]
inhibition at 0.2 µM [1]: 56%

NS(=O)(=O)N(CCC(F)(F)F)c1sc2ccccc2c1Br [Compound 304, N-(3-Bromo-benzo[b]thiophen-2-yl)-N-(3,3,3-trifluoro-propyl)-sulfamide]
inhibition at 0.2 µM [1]: 29%

Cc1c(N(Cc2ccc(F)c(C(F)(F)F)c2)S(=O)(=O)c2cccc(C(=O)O)c2)sc2ccccc12 [Compound 305, N-(3-Methyl-benzo[b]thiophen-2-yl)-N-(4-fluoro-3-trifluoromethyl-benzyl)-3-carboxy-benzenesulfonamide]
pIC50: 7.92 | inhibition at 0.2 µM [1]: 97%

O=C(O)c1cccc(S(=O)(=O)N(Cc2ccc(F)c(C(F)(F)F)c2)c2sc3ccccc3c2Cl)c1 [Compound 307, N-(3-Chloro-benzo[b]thiophen-2-yl)-N-(4-fluoro-3-trifluoromethyl-benzyl)-3-carboxy-benzenesulfonamide]
pIC50: 7.82 | inhibition at 0.2 µM [1]: 101%

CC(=O)c1ccc(S(=O)(=O)N(Cc2ccc(F)c(C(F)(F)F)c2)c2cc3ccccc3s2)cc1 [Compound 308, N-(Benzo[b]thiophen-2-yl)-N-(4-fluoro-3-trifluoromethyl-benzyl)-4-acetyl-benzenesulfonamide]
pIC50: 7.16 | inhibition at 0.2 µM [1]: 92%

CNS(=O)(=O)N(Cc1ccc(F)c(C(F)(F)F)c1)c1sc2ccccc2c1Cl [Compound 309, N-(3-Chloro-benzo[b]thiophen-2-yl)-N-(4-fluoro-3-trifluoromethyl-benzyl)-N′-methyl-sulfamide]
pIC50: 7.26 | inhibition at 0.2 µM [1]: 93%

O=S(=O)(c1cccnc1Cl)N(Cc1ccc(F)c(C(F)(F)F)c1)c1cc2ccccc2s1 [Compound 310, N-(Benzo[b]thiophen-2-yl)-N-(4-fluoro-3-trifluoromethyl-benzyl)-2-chloro-pyridin-3-ylsulfonamide]
inhibition at 0.2 µM [1]: 69%

O=S(=O)(c1ccc(Cl)nc1)N(Cc1ccc(F)c(C(F)(F)F)c1)c1cc2ccccc2s1 [Compound 311, N-(Benzo[b]thiophen-2-yl)-N-(4-fluoro-3-trifluoromethyl-benzyl)-2-chloro-pyridin-5-ylsulfonamide]
pIC50: 6.83 | inhibition at 0.2 µM [1]: 82%
